Consider 4 compounds from PubChem BioAssay AID1259411 (Chemical Carcinogenesis Research Information System (CCRIS), 2018).

Calls of active or inactive are those of the source. The rule behind the calls is not given here.

For the series, the system named is rodent carcinogenicity bioassays, tumor incidence. Nature of the series: CCRIS carcinogenicity studies. In outline:
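NCI-built, expert-reviewed records of carcinogenicity and related test outcomes (mutagenicity, tumor promotion/inhibition) compiled from published and report sources, historical span 1985-2011, not updated.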

Take `CC(=O)CC(C)C`: the carcinogen call runs as follows: (Species: Mouse, Strain/Sex: B6C3F1/N/Female, Route: Inhalation, Dose: 0, 450, 900, 1800 ppm 6 hr and 12 min/day, 5 d/wk for 105 wks, Dose: 0, 450, 900, 1800 ppm 6 hr and 12 min/day, 5 d/wk for 105 wks, Tumor Site: Type of Lesion: Liver: Hepatocellular adenoma (13/50, 15/50, 20/50, 23/50), Hepatocellular carcinoma (6/50, 5/50, 6/50, 11/50), Hepatoce, Tumor Site: Type of Lesion: Liver: Hepatocellular adenoma (13/50, 15/50, 20/50, 23/50), Hepatocellular carcinoma (6/50, 5/50, 6/50, 11/50), Hepatoce) “equivocal”; (Species: Mouse, Strain/Sex: B6C3F1/N/Male, Route: Inhalation, Dose: 0, 450, 900, 1800 ppm 6 hr and 12 min/day, 5 d/wk for 105 wks, Dose: 0, 450, 900, 1800 ppm 6 hr and 12 min/day, 5 d/wk for 105 wks, Tumor Site: Type of Lesion: Liver: Hepatocellular adenoma (17/50, 25/50, 23/50, 34/50), Hepatocellular carcinoma (12/50, 12/50, 10/50, 9/50), Hepato, Tumor Site: Type of Lesion: Liver: Hepatocellular adenoma (17/50, 25/50, 23/50, 34/50), Hepatocellular carcinoma (12/50, 12/50, 10/50, 9/50), Hepato) “active; positive (ntp describes as some evidence)”; (Species: Rat, Strain/Sex: F344/N/Female, Route: Inhalation, Dose: 0, 450, 900, 1800 ppm 6 hr and 12 min/d, 5 d/wk for 104 wks, Dose: 0, 450, 900, 1800 ppm 6 hr and 12 min/d, 5 d/wk for 104 wks, Tumor Site: Type of Lesion: Mesenchymal tumor malignant: (0/50, 0/50, 0/50, 2/50)) “equivocal”; (Species: Rat, Strain/Sex: F344/N/Male, Route: Inhalation, Dose: 0, 450, 900, 1800 ppm 6 hr and 12 min/d, 5 d/wk for 104 wks, Dose: 0, 450, 900, 1800 ppm 6 hr and 12 min/d, 5 d/wk for 104 wks, Tumor Site: Type of Lesion: Kidney: Renal tubule adenoma (2/50, 3/50, 3/50, 10/50), Renal tubule carcinoma (0/50, 1/50, 0/50, 2/50), Renal tubule ad, Tumor Site: Type of Lesion: Kidney: Renal tubule adenoma (2/50, 3/50, 3/50, 10/50), Renal tubule carcinoma (0/50, 1/50, 0/50, 2/50), Renal tubule ad) “active; positive (ntp describes as some evidence)”.
Consider `CCCCN(CCCCO)N=O`, for which the carcinogen call (Species: MOUSE, Strain/Sex: B6C3F1/MALE, Route: ORAL, Dose: 0, 0.05% IN DRINKING WATER FOR 12 WK (STUDY DURATION: 20 WK), Tumor Site: Type of Lesion: BLADDER: SQUAMOUS CELL CARCINOMA) is “active; positive”; the carcinogen call (Species: MOUSE, Strain/Sex: B6D2F1/FEMALE, Route: ORAL, Dose: 0, 523 MG/L IN DRINKING WATER FOR 13 WK (STUDY DURATION: 28 WK), Tumor Site: Type of Lesion: URINARY BLADDER: TUMOR) was “active; positive”; the carcinogen call (Species: MOUSE, Strain/Sex: B6D2F1/MALE, Route: ORAL, Dose: 0, 0.05% IN DRINKING WATER FOR 26 WK (STUDY DURATION: 26 WK), Tumor Site: Type of Lesion: URINARY BLADDER: TRANSITIONAL CELL CARCINOMA) was “active; positive”; the carcinogen call (Species: MOUSE, Strain/Sex: B6D2F1/MALE, Route: ORAL, Dose: 0, 5 MG TWICE/WK BY GAVAGE FOR 10 WK (STUDY DURATION: 30 WK), Tumor Site: Type of Lesion: URINARY BLADDER: TRANSITIONAL CELL CARCINOMA) is “active; positive”; the carcinogen call (Species: MOUSE, Strain/Sex: B6D2F1/MALE, Route: ORAL, Dose: 0, 523 MG/L IN DRINKING WATER FOR 13 WK (STUDY DURATION: 28 WK), Tumor Site: Type of Lesion: URINARY BLADDER: TUMOR) is “active; positive”; the carcinogen call (Species: MOUSE, Strain/Sex: DS/SHI/MALE, Route: ORAL, Dose: 0, 0.05% IN DRINKING WATER FOR 12 WK (STUDY DURATION: 20 WK), Tumor Site: Type of Lesion: BLADDER: TRANSITIONAL CELL CARCINOMA) was “active; positive”. Further, the carcinogen call is, setting by setting: (Species: MOUSE, Strain/Sex: NON/SHI/MALE, Route: ORAL, Dose: 0, 0.05% IN DRINKING WATER FOR 4 WK (STUDY DURATION: 36 WK), Tumor Site: Type of Lesion: KIDNEY: TRANSITIONAL CELL CARCINOMA PAPILLOMA, BLADDER: TRANSITIONAL CELL CARCINOMA) “active; positive”; (Species: MOUSE, Strain/Sex: NON/SHI/MALE, Route: ORAL, Dose: 0, 0.05% IN DRINKING WATER FOR 12 WK (STUDY DURATION: 20 WK), Tumor Site: Type of Lesion: KIDNEY: TRANSITIONAL CELL CARCINOMA, SQUAMOUS CELL CARCINOMA, BLADDER: TRANSITIONAL CELL CARCINOMA) “active; positive”; (Species: Mouse, Strain/Sex: Nrf2-/-, p53+/-, Nrf2-/-::p53+/-, and wild type, Route: Oral, Dose: 0.05% in drinking water for 8 wk, study duration 8 wk) “urinary bladder: carcinoma, 63.0% in nrf2-/- mice, 75.8% in p53+/- mice, 89.6% i”; (Species: RAT, Strain/Sex: ACI/MALE, Route: ORAL, Dose: 0, 0.05% IN DRINKING WATER FOR 4-24 WK, Tumor Site: Type of Lesion: URINARY BLADDER: PAPILLOMA, TRANSITIONAL CELL CARCINOMA, SQUAMOUS CELL CARCINOMA) “active; positive”; (Species: RAT, Strain/Sex: F344/MALE, Route: ORAL, Dose: 0, 0.05% IN DRINKING WATER FOR 10 WK (STUDY DURATION: 20 WK), Tumor Site: Type of Lesion: URINARY BLADDER: TRANSITIONAL CELL CARCINOMA) “active; positive”; (Species: RAT, Strain/Sex: F344/MALE, Route: ORAL, Dose: 0, 1, 5, 10, 50 PPM IN DRINKING WATER FOR 112 WK (STUDY DURATION: 112 WK), Dose: 0, 1, 5, 10, 50 PPM IN DRINKING WATER FOR 112 WK (STUDY DURATION: 112 WK), Tumor Site: Type of Lesion: BLADDER: CARCINOMA, PAPILLOMA) “active; positive”.
On to `C/C=C(/C)C(=O)O[C@H]1CCN2CC=C(COC(=O)[C@@](O)([C@H](C)OC)C(C)(C)O)[C@H]12`, for which the carcinogen call is, setting by setting: (Species: RAT, Route: INTRAPERITONEAL, Tumor Site: Type of Lesion: INTESTINES, LIVER, INTEGUMENTARY SYSTEM (SKIN), Tumor Site: Type of Lesion: INTESTINES, LIVER, INTEGUMENTARY SYSTEM (SKIN)) “active; positive”; (Species: RAT, Strain/Sex: F344/FEMALE, Route: ORAL, Dose: 0, 7, 15, 30 PPM IN DIET, Dose: 0, 7, 15, 30 PPM IN DIET, Tumor Site: Type of Lesion: LIVER: HEPATOCELLULAR CARCINOMA OR ADENOMA (NOS), ANGIOSARCOMA, HEMATOPOIETIC SYSTEM (LEUKEMIA), LYMPHATIC SYSTEM: LYMPH, Tumor Site: Type of Lesion: LIVER: HEPATOCELLULAR CARCINOMA OR ADENOMA (NOS), ANGIOSARCOMA, HEMATOPOIETIC SYSTEM (LEUKEMIA), LYMPHATIC SYSTEM: LYMPH) “active; positive”; (Species: RAT, Strain/Sex: F344/MALE, Route: ORAL, Dose: 0, 7, 15, 30 PPM IN DIET, Dose: 0, 7, 15, 30 PPM IN DIET, Tumor Site: Type of Lesion: LIVER: HEPATOCELLULAR CARCINOMA OR ADENOMA (NOS), ANGIOSARCOMA) “active; positive”.
As to `C/[N+]([O-])=N/CO`, the carcinogen call reads like this: (Species: HAMSTER, Strain/Sex: SYRIAN/MALE,FEMALE, Route: INTRAVENOUS, Dose: 10 MG/KG BW, 4-5 INJ, Tumor Site: Type of Lesion: LIVER: CYSTADENOMA AND CYSTIC LESIONS, VASCULAR TUMOR, HEPATOCELLULAR CARCINOMA, INTESTINES (LARGE): ADENOMA, ADENOCARCI) “active; positive”; (Species: HAMSTER, Strain/Sex: SYRIAN/MALE,FEMALE, Route: INTRAVENOUS, Dose: 15 MG/KG BW, 4-5 INJ, Tumor Site: Type of Lesion: LIVER: CYSTADENOMA AND CYSTIC LESIONS, VASCULAR TUMOR, HEPATOCELLULAR CARCINOMA, INTESTINES (LARGE): ADENOMA, ADENOCARCI) “active; positive”; (Species: HAMSTER, Strain/Sex: SYRIAN/MALE,FEMALE, Route: INTRAVENOUS, Dose: 20 MG/KG BW, 3 INJ, Tumor Site: Type of Lesion: LIVER: CYSTADENOMA AND CYSTIC LESIONS, GALL BLADDER: ADENOCARCINOMA, INTESTINES (LARGE): ADENOCARCINOMA, Tumor Site: Type of Lesion: LIVER: CYSTADENOMA AND CYSTIC LESIONS, GALL BLADDER: ADENOCARCINOMA, INTESTINES (LARGE): ADENOCARCINOMA) “active; positive”; (Species: HAMSTER, Strain/Sex: SYRIAN/MALE,FEMALE, Route: INTRAVENOUS, Dose: 20 MG/KG BW, SINGLE DOSE, Tumor Site: Type of Lesion: LIVER: ADENOCARCINOMA, HEPATOCELLULAR CARCINOMA, VASCULAR TUMOR, CYSTADENOMA AND CYSTIC LESIONS, INTESTINES (LARGE): ADE) “active; positive”; (Species: RAT, Strain/Sex: SPRAGUE-DAWLEY/MALE, Route: INTRAVENOUS, Dose: 25 MG/KG 1/WK FOR 5 WK, Tumor Site: Type of Lesion: INTESTINES (JEJUNUM OR ILEUM), INTESTINES (COLON OR RECTUM), CECUM, DUODENUM, Tumor Site: Type of Lesion: INTESTINES (JEJUNUM OR ILEUM), INTESTINES (COLON OR RECTUM), CECUM, DUODENUM) “active; positive”; (Species: RAT, Strain/Sex: SPRAGUE-DAWLEY/MALE, Route: INTRAVENOUS, Dose: 25 MG/KG 1/WK FOR 15 WK, Tumor Site: Type of Lesion: INTESTINES (JEJUNUM OR ILEUM), INTESTINES (COLON OR RECTUM), CECUM, DUODENUM, Tumor Site: Type of Lesion: INTESTINES (JEJUNUM OR ILEUM), INTESTINES (COLON OR RECTUM), CECUM, DUODENUM) “active; positive”. Moreover, the carcinogen call (Species: RAT, Strain/Sex: SPRAGUE-DAWLEY/MALE, Route: INTRAVENOUS, Dose: 25 MG/KG, SINGLE DOSE, Tumor Site: Type of Lesion: INTESTINES (JEJUNUM OR ILEUM), INTESTINES (COLON OR RECTUM)) is “active; positive”.
